Measurements as given in US11249082B2, “Zika virus assay systems” (UNIVERSITY OF MIAMI, priority 2016, dated 2022).

Experiments:
intact ZIKV particles [1] = experiment: Direct ELISA of biotinylated peptides vs intact ZIKV particles; assay type: binding, Zika virus (ZIKV); conditions: dose-response curves
Method: (§1) To optimize all parameters of the direct ELISA protocol, Pierce 96-Well Polystyrene Plates, (ThermoFisher Scientific) were coated overnight at 4° C. with different concentrations of intact virus particles (ZIKV or DENV). The intact virus particles were diluted using 100 mM NaHCO3, pH 9.6, and aliquots of 100 μL were dispensed into each well of the plate using a multichannel pipette. This buffer pH assured a strong hydrophobic binding interaction between polystyrene and virus particles.
(§2) Intact particles both ZIKV and DENV were provided by Dr. Watkins group (University of Miami, Dep. of Pathology). The samples were controlled and counted by focus forming assay and RT-PCR, the details were reported in a previous work (Magnani et al., 2017). The Intact particles of ZIKV were inactivated using gamma irradiation. Assay biohazardous steps were carried out according to standard safety procedures.
After coating the plates overnight, the intact virus particles were removed by washing five times with the washing buffer (PBST) 10 mM PBS pH 7.4, 0.1% Tween-20, using an automated plate washer (MultiWash+, Molecular Devices, Sunnyvale, Calif.). Then, the plates were blocked with 200 μL of blocking buffers while shaking at 300 rpm at room temperature. The blocking buffers used were: Pierce™ Protein-Free (PBS) Blocking Buffer (PF), Blocker™ BLOTTO in TBS, SuperBlock™ Blocking Buffer, Blocker™ BSA (1×) in PBS. All blocking buffer were from ThermoFisher Scientific.
After 2 h the blocking buffers were removed using the same washing procedure mentioned above. 100 μL-aliquots of several dilutions of peptides biotinylated in 10 mM PBS pH 7.4 were placed in each well and incubated for 2 h while shaking at 300 rpm at room temperature. After the incubation, the unreacted peptides were removed by using the plate washer with the same settings. Then, 100 μL-aliquots of streptavidin-HRP (ThermoFisher Scientific) at a concentration of 20 ng/mL were added into each well and incubated for 30 min at room temperature without shaking. After the incubation, excess streptavidin-HRP was removed and the wells were washed with the plate washer five times using the washing buffer. Finally, 100 μL-aliquots of the Ultra TMB-ELISA Substrate Solution (ThermoFisher Scientific) were added and after 10 min the reaction was stopped by adding 100 μL aliquots of the TMB stop solution (SeraCare). The emission (450 nm) was read using a microplate reader (Clariostar Optima; BMG Labtech, Ortenberg, Germany).
The corresponding blank signals in triplicates were obtained by using all reagents without peptides. The blank signal was then subtracted to the average absorbance values for triplicate wells of each test. […]

[2] = system: three serotypes of DENV (DENV-1, -2 and -3); experiment: Direct ELISA cross-reactivity study, ZIKV vs DENV; assay type: binding, Dengue virus (DENV); conditions: all DENV serotypes; plates coated with 10^5 copies/mL of intact virus particles
Method: as §1, §2
(§3) The cross-reactivity among Flaviviruses is a key parameter to be tested for this assay. Using the same ELISA protocol, the three clamp peptides (C3, C6 and C7) with higher sensitivity versus the intact ZIKV particles where employed to test the ability to discriminate ZIKV from the three serotypes of DENV (DENV-1, -2 and -3).
(§4) The results shown in FIG. 4 were obtained by coating clear 96-well plates with a solution of 10^^5 copies/mL of intact virus particles. […]

intact ZIKV particles [3] = experiment: Direct ELISA matrix effect in urine and serum; assay type: binding, Zika virus (ZIKV); conditions: urine diluted 1:1, serum 1:10; 10^5 and 10^6 copies/mL ZIKV coated
Method: Usually, the presence of ZIKV in affected bodies is detected in biological fluids. Therefore, the analytical sensitivity of the selected peptides was tested in two biological matrices, namely, urine and serum. The matrix effect was investigated to understand how real biological fluids could modify the binding efficiency of the peptides.
FIG. 4 depicts the ELISA data using solutions of peptides with or without the urine and serum obtained coating clear 96-well plates with 10^^5 and 10^^6 copies/mL of intact ZIKV particles. Urine and serum were 1:1 and 1:10 diluted, respectively, with a concentrated peptide PBS solution (10 mM PBS, pH 7.4) to obtain a peptide final concentration of 0.5 μM for C3 and C6, 5 μM for C7 and 20 μM for mono-arm peptides (P2 and X1).

DENV-2 = experiment: Direct ELISA cross-reactivity study, DENV-2; assay type: binding, Dengue virus (DENV); conditions: plates coated with 10^5 copies/mL of intact virus particles
Method: as §1, §2, §3, §4

DENV-3 = experiment: Direct ELISA cross-reactivity study, DENV-3; assay type: binding, Dengue virus (DENV); conditions: plates coated with 10^5 copies/mL of intact virus particles
Method: as §1, §2, §3, §4

Row | Substance | dynamic range width (orders of magnitude) (intact ZIKV particles [1]) | signal decrease, DENV relative to ZIKV [2] | performance in urine and serum (intact ZIKV particles [3]) | signal decrease, DENV-2 relative to ZIKV (DENV-2) | signal decrease, DENV-3 relative to ZIKV (DENV-3)
1 | C3: clamp peptide: WPWIGT (18) - bridge GPGCCGPG (32) - KRNATP (26) (WPWIGTGPGCCGPGKRNATP; C3 Binds to Active Site 2; Bridge peptide; C3 Binds to Active Site 1) | three-order of magnitude dynamic range | around 70% | better performance in urine than serum |  | 
2 | C6: clamp peptide: AGRRP (20) - bridge GPGCCGPG (32) - LRGHA (25) (AGRRPGPGCCGPGLRGHA; C5 Binds to Active Site 2; Bridge peptide; C2 Binds to Active Site 1) | three-order of magnitude dynamic range |  | strong decrease in the signal | 45% | 55%
3 | C7: clamp peptide: MDSPIK (22) - bridge GPGCCGPG (32) - KRNATP (26) (MDSPIKGPGCCGPGKRNATP; C7 Binds to Active Site 2; Bridge peptide; C3 Binds to Active Site 1) | three-order of magnitude dynamic range | around 70% | best performance among the three clamp peptides, having higher signals in serum than in urine |  | 
4 | C-SWPGQ (CSWPGQ; P1) [mono-arm pentapeptide with N-terminal cysteine] | one order of magnitude dynamic range |  |  |  | 
